Assay results: patent publication US9115176B2, “Compounds, use thereof in cosmetic and cosmeceutic applications, and compositions comprising same” (Lucas Meyer Cosmetics Canada Inc., priority 2007, dated 2015)
* marks the point of attachment. Hexanoyl = CCCCCC(=O)*

Legend:
collagen VII = experiment: Synthesis of collagen VII in human skin fragments treated with dermal corticosteroid (immunohistochemistry, semi-quantitative score); assay type: cell-based
Procedure: (§1) Fragments of normal human skin were treated or not in the presence of a dermal corticosteroid at 0.05% w/v and peptide I at a concentration of 10^−7M. Dermal corticosteroid are known to alter cell metabolism. The skin samples were then frozen at day 3 for an immunohistochemical analysis of collagen VII. The immunodetection was performed with a 3 coats indirect immunoperoxidase method (ABC Peroxidase kit, Vector laboratories) using a primary antibody specific to collagen VII.

[1] = system: Normal human dermal fibroblasts; experiment: Neosynthesis of laminin in normal human dermal fibroblasts (E.I.A. kit, normalised to Bradford protein); assay type: cell-based; settings: for Laminins (ng/μg proteins) % increase: 48 hours incubation, untreated control = 100.0%
Procedure: Normal human dermal fibroblasts were incubated for 48 hours in absence or presence of Transforming Growth Factor (TGF)-β at 50 ng/ml or of peptide I at two concentrations, namely 10^−6M and 10^−7M. At the end of the incubation period, laminins were quantified with the E.I.A. Enzyme Immuno Assay kit. Proteins contained in the cell lysate were also quantified by spectrocolorimetry according to the Bradford method. TGF-β and peptide I were tested in dose-response on the fibroblasts.
The data presented in Table I below represent the relative increase in laminin synthesis in a human dermal fibroblast culture medium in monolayers in the presence of peptide I, or TGF-β, as compared to untreated cells (control).

laminin-5 = experiment: Synthesis of laminin-5 in human skin fragments treated with dermal corticosteroid (immunohistochemistry, semi-quantitative score); assay type: cell-based
Procedure: as §1, with “or” for “and”, “10^−7M.” for “10^−7M. Dermal corticosteroid are known to alter cell metabolism.”, “laminin-5.” for “collagen VII.”, “(BC” for “(ABC”

crow's feet = experiment: In vivo anti-wrinkle activity on crow's feet (photographs, silicone replicas, fringe projection); design: species or system human; settings: 5 ppm in Table VI formulation, topical twice daily, after 28 and 56 days, versus placebo
Procedure: Peptide I was tested in the formulation described in Table VI below versus its placebo on 30 subjects (+10%) selected according to the inclusion/non inclusion criteria. [table] The study lasted 56 days following the first application. Volunteers applied the product twice daily on a randomised crow's foot of the temple. The study was a simple blind test, comparing the results obtained at one treated area following application of the composition comprising peptide I with those obtained at another treated area with the placebo. The evaluation of the efficacy of the formulation comprising peptide I was performed using: (a) illustrative digital photographs of the crow's feet; and (b) Silicone rubber replicas of the crow's feet (analysis of the wrinkles and of the skin network by fringe projection). In vitro fringe projection—Topometry—Wrinkles. […] All the silicone rubber replicas were analysed by fringe projection to observe the cutaneous relief. The following parameters were measured: (a) SPa: Average roughness; (b) SPq: Average dispersal of the variations of the relief; (c) SPt: Maximum amplitude of the relief and (d) SDev: Developed Surface. […] All the replicas were analysed by fringe projection to observe the skin network analysis. The following parameters were measured: (a) SRa: Average roughness (mm); and (b) SRq: Average with regards to the average quadratic (mm).

[2] = skin + corticosteroids 0.05% w/v + peptide I 10^−7M, day 3

| Substance | Collagen VII score, relative change (collagen VII; [2]) | Collagen VII labelling score (collagen VII; skin + corticosteroids 0.05% w/v + peptide I 10^−7M, day 3, control skin 1.9 ± 0.8) | Effect on synthesis of collagen VII in a human skin model (in words) (collagen VII; summary of Table III) | Laminins (ng/μg proteins) % increase ([1]; 10^−6M) [%] | Laminins (ng/μg proteins) % increase ([1]; 10^−7M) [%] | Effect on laminin synthesis in human dermal fibroblast cells (in words) ([1]; summary of Table I) | Laminin-5 score, relative change (laminin-5; [2]) | Laminin-5 labelling score (laminin-5; skin + corticosteroids 0.05% w/v + peptide I 10^−7M, day 3, control skin 2.1 ± 1.3) | Effect on synthesis of laminin-5 in a human skin model (in words) (laminin-5; summary of Table V) | Crow's feet skin network roughness (in words) (crow's feet) | Reduction of the wrinkles (crow's feet roughness, in words) (crow's feet) | Laminins (ng/μg proteins) % increase ([1]; 50 ng/ml) [%] |
| --- | --- | --- | --- | --- | --- | --- | --- | --- | --- | --- | --- | --- |
| CH3—(CH2)4—CO-Lys-Gly-His-Lys-NH2 (Hexanoyl-KGHK-NH2; SMILES CCCCCC(=O)N[C@@H](CCCCN)C(=O)NCC(=O)N[C@@H](Cc1c[nH]cn1)C(=O)N[C@@H](CCCCN)C(N)=O) [Peptide I] | +34% | 2.25 ± 0.2 | increases the synthesis of collagen VII | 125.8 | 125.9 | increases laminin synthesis | +49% | 2.2 ± 0.8 | increases the synthesis of laminin-5 | reduction of the crow's feet skin network roughness | potent efficacy |  |
| TGF-β [reference compound] |  |  |  |  |  |  |  |  |  |  |  | 109.9 |
